The text below walks through data of patent US9422238B2, “ICMT inhibitors” (National University of Singapore, priority 2012, dated 2016).

One data set relates to HepG2 xenografts. Nature of the data set: In vivo activity on xenograft bearing mice. Particulars: for deaths during the treatment period: 8 mice. The method, then: HepG2 cells were grown in DMEM and 10% FBS until near confluence and then harvested after trypsinization. […] The vehicle was ethanol-PEG400-dextrose solution as described in 5.2.1. The animals were monitored daily for changes in their general appearance, weight and tumor volume. Tumor volume was calculated using the formula: […]. Length (L) and width (W) of the tumor were measured with a digital vernier caliper and reported to 2 decimal places. The shorter of the 2 distances was taken as width. The mice were monitored—for 25-days after which they were euthanized with CO2, the tumors removed by dissection and weighed.

For data set [1], the system named is PC3 cells. In words: Apoptosis by Annexin V-FITC / propidium iodide staining. It counts as cell-based, human. Particulars: PC3, 48 h; for % Apoptotic / % Necrotic / % Normal: one analysis only; for induction of apoptosis: one determination, preliminary. The method, then: The Annexing® V-FITC Apoptosis Detection Kit (BD Biosciences, Franklin Lakes, N.J.) was used PC3 cells were seeded at 65 000 cells per well in 6-well plates with DMEM (high glucose, supplemented with 10% FBS) as media. Plates were incubated (24 h, 37° C., 5% CO2) for cells to attach and then treated with test compound (prepared in same media but with 5% FBS) for 48 h. Final volume of DMSO per well was 0.05% v/v. After the specified time, the supernatant in the well was collected, the cell pellet was trypsinized, combined with the supernatant and pelleted by centrifugation (150 g, 5 min). The pellet was rinsed twice with cold 1×PBS and suspended in the proprietary binding buffer (1×) to give a concentration of 10^6 cells per mL. An aliquot (100 μL) of the suspension containing 10^5 cells was transferred to the FACS tube (5 mL) to which was added Annexin® V-FITC solution (5 μL) and propidium iodide (PI) solution (5 μL). The solution was gently vortexed, incubated in the dark for 15 min at room temperature (25° C.), after which was added 400 μL of the binding buffer (1×). The sample was analyzed immediately or no later than 1 h, in which case it should be kept in ice and protected from light. Analysis was carried out on a FCS500 flow cytometer (Beckman Coulter, CA) using the FlowJo® software (http: http://www.flowjo.com/). Controls comprised untreated cells, cells exposed to Annexin® V-FITC only, and cells exposed to PI only. Each test compound was evaluated at 4 concentrations. Only 1 determination was made per concentration.

The subject of data set [2] is PC3 cells. Nature of the data set: In vitro scratch assay (cell migration). It counts as cell-based, human. As to conditions: PC3, 24 h. The method, then: PC3 cells were seeded at 100 000 cells per well in a 6-well plate in media (DMEM, high glucose, 10% FBS, 50 μg/mL penicillin, 50 μg/mL streptomycin) and incubated (37° C., 5% CO2) for 36 hours until confluent. The cell monolayer was scraped in a straight line with a 1 mL pipette tip to create a “scratch” which was also marked at the bottom of the plate with a marker pen. The media was removed from the well which was then washed with PBS. Test compound in 2 mL DMEM (high glucose, 5% FBS) was added to each well (DMSO concentration of 0.05% v/v per well) and the plates were incubated at 37° C., 5% CO2. Control wells with PC3 monolayers were similarly treated. Scratches of approximately the same size were made on control and treated wells. Photographs of the scratched surfaces in wells were taken with a microscope fitted with a camera at the start of incubation and after 24 h. Magnification was kept constant at 40× for all acquired images. These were further analyzed by downloading the images into a Powerpoint® file and measuring (on-screen) the distances between one side of the scratch and the other. For each “scratch”, four or five distances were measured across the length of the scratch in the initial (0 h) image and these same distances were monitored after 24 h. Each compound was tested at 3 concentrations with 3 repeats made for each concentration.

Data set [3] is described as follows: In vitro metabolite structure identification. It counts as in vitro ADME. As to conditions: rat liver microsomes, 45 min, LC/MS/MS. As for the experimental part:
The test compound was incubated with rat liver microsomes for 45 minutes, after which aliquots were analyzed by LC/MS/MS for the presence of metabolites. The test compound was incubated with pooled rat liver microsomes (BD Gentest Corp, Woburn, Mass.) in a mixture (final volume 500 μL) comprising the following: rat liver microsomes (7.5 μL of 20 mg microsomal protein to give final concentration of 0.3 mg microsome protein/mL), test compound (2.5 μL of 1 mM test compound in acetonitrile to give final concentration of […]) and phosphate buffer (440 μL of 0.1 M, pH 7.4, containing 1 mM EDTA). The mixture was preincubated for 5 min at 37° C. in a shaking water bath, after which-reaction was initiated by adding 50 μL of 10 mM NADPH (freshly prepared in phosphate buffer) to give a final concentration of 1 mM NADPH in the mixture. Aliquots of 50 μL were withdrawn immediately on addition of NADPH (time 0) and 45 min later. On removal of the sample, reaction was quenched by addition of chilled methanol (100 μL). The mixture was then centrifuged at 10,000 g to remove the protein and the supernatant was analyzed by LC-MS-MS.
Liquid chromatography was performed on an Agilent® 1200 series HPLC system interfaced with a QTRAP 3200 triple quadruple mass spectrometer (Applied Biosystems, Foster City, Calif.). […]
(In general: Microsomes from liver hold many membrane-bound enzymes, among them those of drug oxidation.)

In the next data set the test system is Balb/c mice. As for the experimental part: Animals were given free access to water and standard feed. […] The test compound was administered intraperitoneally using a 23G gauge needle to the animal in a volume of vehicle that was tagged to the body weight, namely 0.2 mL for 20 g animal and so on. The vehicle was formulated from ethanol, PEG 400 (Sigma Aldrich) and 5% dextrose (Sigma Aldrich) in the ratio 1:6:3. The test compound was first dissolved in ethanol, PEG400 was added and the solution was vortexed, followed by 5% dextrose and further vortexing. The solutions were freshly prepared before administration.

[4] abbreviates: female, Balb/c, mouse, in vivo, ip, 24 h.

“Also recorded” adds a separate entry of the source. Like-named read-outs stand apart in the source and are kept apart here.

On to `CCCCCCCCn1cc(CC(N)=O)c2cc(-c3cccc(C)c3)ccc21` [Cysmethynil, 2-[5-(3-methylphenyl)-1-octyl-1H-indolo-3-yl]acetamide, reference compound], for which the body weight change entry in the data set on HepG2 xenografts (xenograft-bearing mice, 25 days) was “Weight loss was observed up to Day 11”. In addition, the “% Apoptotic” value in the data set on PC3 cells [1] (12.5 μM) is given as 0.92%; with PC3 cells [1] (17.5 μM), 1.96%; in the data set with PC3 cells [1] (20.0 μM) it was 1.23%; in the data set with PC3 cells [1] (22.5 μM) it was 1.21%. In addition, the “% Necrotic” value in the data set with PC3 cells [1] (12.5 μM) is on record as 6.94%; in the data set with PC3 cells [1] (17.5 μM) it was 8.33%; in the data set with PC3 cells [1] (20.0 μM), 8.06%. The “% Normal” value in the data set on PC3 cells [1] (12.5 μM) is recorded as 92.1%; in the data set with PC3 cells [1] (17.5 μM), 89.7%; in the data set with PC3 cells [1] (20.0 μM), 90.7%; with PC3 cells [1] (22.5 μM) it was 89.6%. Moreover, the induction of apoptosis result with PC3 cells [1] is given as “not found to induce apoptosis”. For the same molecule, in the data set with PC3 cells [2], the “gap closure in scratch assay” value is “the gap closed to some degree in the presence of 17.5 and 20 μM cysmethynil after 24 h, but remained open in cells treated with 22.5 μM cysmethynil”. For the same molecule, in data set [3], the metabolites found is recorded as 4 mono-oxygenated/hydroxylated metabolites (A-D). The maximal tolerated dose entry in the data set on Balb/c mice (setting [4]) is on record as “exceeded 100 kg/kg”. Besides, the tolerability result with Balb/c mice (mouse, in vivo, ip) was “well tolerated at all doses”.

With `CCCCCCCCn1cc(CN(CC)CC)c2cc(-c3cnc(N)nc3)ccc21` [Compound 8-12, 5-(3-Diethylaminomethyl-1-octyl-1H-indol-5-yl)-pyrimidin-2-ylamine], the “deaths during the treatment period” value is recorded as “one animal died” in the data set with HepG2 xenografts (15 mg/kg IP daily, 25 days) and “Three deaths” with HepG2 xenografts (30 mg/kg IP daily, 25 days). Also, the “reduction in relative tumor volume” value in the data set on HepG2 xenografts (15 and 30 mg/kg IP daily, p<0.05 vs control) was “Significant reduction in tumor volume was evident from Day 5 onwards for animals receiving 30 mg/kg and Day 7 onwards for animals receiving 15 mg/kg; also recorded: Reduction in tumor volume was significant from Day 5 and Day 7 onwards for animals dosed with 30 mg/kg and 15 mg/kg respectively”. In addition, the “weight of excised tumors vs control” value in the data set on HepG2 xenografts (after 25 days) is recorded as “significant weight loss compared to control”. The “% Apoptotic” value is given as 1.45% in the data set with PC3 cells [1] (0.4 μM), 1.31% in the data set with PC3 cells [1] (0.8 μM), 0.71% in the data set with PC3 cells [1] (1.0 μM) and 0.93% in the data set with PC3 cells [1] (1.2 μM). Further, the “% Necrotic” value in the data set with PC3 cells [1] (0.4 μM) is recorded as 4.95%; with PC3 cells [1] (0.8 μM), 6.85%; with PC3 cells [1] (1.0 μM), 8.84%; in the data set on PC3 cells [1] (1.2 μM), 7.43%. In addition, the “% Normal” value in the data set on PC3 cells [1] (0.4 μM) is on record as 93.6%; in the data set on PC3 cells [1] (0.8 μM), 91.8%; in the data set on PC3 cells [1] (1.0 μM) it was 90.4%; in the data set on PC3 cells [1] (1.2 μM), 91.6%. Also, the induction of apoptosis result with PC3 cells [1] is reported as “Induction of apoptosis was also not observed”. For the same molecule, the “gap closure in scratch assay” value in the data set with PC3 cells [2] is “the gap remained “open” at 2 and 2.5 μM but closed to some extent at a lower concentration of 1.5 μM”. Also, the metabolites found entry in data set [3] was “four metabolites were proposed”. In addition, the tolerability entry in the data set with Balb/c mice (setting [4]) was “well tolerated at 10, 20 and 50 mg/kg”. In the data set on Balb/c mice (mice, IP), the “apparent maximal tolerated dose” value was found to be 100 mg/kg.
